# Test results reported in BindingDB's records for doi:10.1046/j.1471-4159.1994.63020456.x (Syntex Discovery Research, 1994).
# Biological target: 5-hydroxytryptamine receptor 7 (Cavia porcellus, UniProt P50407)
# Sequence (P50407 whole entry): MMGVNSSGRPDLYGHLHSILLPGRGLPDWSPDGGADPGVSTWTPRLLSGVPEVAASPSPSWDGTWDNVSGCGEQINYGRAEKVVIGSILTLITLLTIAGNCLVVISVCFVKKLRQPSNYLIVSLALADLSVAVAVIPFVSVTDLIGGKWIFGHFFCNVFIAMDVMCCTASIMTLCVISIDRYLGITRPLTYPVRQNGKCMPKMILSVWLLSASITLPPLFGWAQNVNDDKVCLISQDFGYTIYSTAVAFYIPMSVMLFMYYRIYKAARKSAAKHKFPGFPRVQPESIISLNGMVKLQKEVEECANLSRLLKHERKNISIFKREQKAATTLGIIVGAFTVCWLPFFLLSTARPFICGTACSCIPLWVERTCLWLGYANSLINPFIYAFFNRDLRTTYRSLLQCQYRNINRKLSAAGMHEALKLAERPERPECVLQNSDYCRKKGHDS
row,SMILES,Ki [nM]
1,CCCN(CCC)C1CCc2cccc(O)c2C1 (configuration not stated),50.1
2,CC[C@@H](CO)NC(=O)[C@@H]1C=C2c3cccc4c3c(cn4C)C[C@H]2N(C)C1,39.8
3,CN(C)CCc1c[nH]c2ccc(O)cc12 [3-[2-(dimethylamino)ethyl]indol-5-ol],19.9
4,"O=C(CCCN1CCC2(CC1)C(=O)NCN2c1ccccc1)c1ccc(F)cc1 [8-[4-(4-fluorophenyl)-4-oxidanylidene-butyl]-1-phenyl-1,3,8-triazaspiro[4.5]decan-4-one]",100
5,CNS(=O)(=O)Cc1ccc2[nH]cc(CCN(C)C)c2c1 [Sumax],251
6,NCCc1c[nH]c2ccc(O)cc12 [[3H]-5-HT],1
7,"COc1ccc2[nH]cc(CCN)c2c1 [tryptamine, 5-Methoxy]",1
